Biological target: T1, MrkH (MrkH-8×His) (Klebsiella pneumoniae, UniProt G3FT00)
T1 construct: full length, 234 aa, C-terminal 8×His tag, expressed from pET11a in E. coli BL21(DE3), about 28 kDa
Experiment: EMSA with […]-labelled mrkA promoter fragment
Type: biochemical
Settings: 200 µM c-di-GMP; pH 7.4; 30°C; 0-500 nM protein; allosteric activator of DNA binding; indirect read-out, no direct c-di-GMP binding measured

T1 sequence (G3FT00 entry or part of it): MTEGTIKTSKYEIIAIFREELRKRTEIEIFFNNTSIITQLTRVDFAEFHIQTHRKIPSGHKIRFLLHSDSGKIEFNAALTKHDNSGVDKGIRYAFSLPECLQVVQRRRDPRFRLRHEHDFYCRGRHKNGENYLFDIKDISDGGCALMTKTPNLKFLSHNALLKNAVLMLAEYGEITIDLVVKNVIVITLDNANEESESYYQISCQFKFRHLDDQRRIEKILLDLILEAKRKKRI

## Nc1nc2c(ncn2[C@@H]2O[C@@H]3COP(=O)(O)O[C@H]4[C@@H](O)[C@H](n5cnc6c(=O)[nH]c(N)nc65)O[C@@H]4COP(=O)(O)O[C@H]3[C@H]2O)c(=O)[nH]1 [c-di-GMP]
  EMSA with 32P-labelled mrkA promoter fragment: In the presence of c-di-GMP, the majority of the DNA was shifted

Reference: article PMC3161979, “MrkH, a Novel c-di-GMP-Dependent Transcriptional Activator, Controls Klebsiella pneumoniae Biofilm Formation by Regulating Type 3 Fimbriae Expression” (PLoS Pathogens, 2011)
